Assays:
[1] = magnetic relaxation rates (MRI contrast effect); format: physicochemical; conditions: magnetic relaxation rate; field strength not stated for Table 1
Procedure: In order to examine the MRI contrast effects of the compounds (Gd-suc, Gd-glu) and commercially available MRI contrast agents according to Examples of the present invention, the magnetic relaxation rates and lipophilicity were analyzed, and the results are shown in Table 1 below.
The magnetic relaxation rate (mM^−ls^−1) is a parameter indicating contrast efficiency per unit concentration, and in the case of a T1 contrast agent, the r2/r1 ratio is known to have a value of 0.5 to 1.5.

[2] = tested on: AML12 cell line; test: in vitro cell-viability test (CCK method); format: cell-based; conditions: AML12 normal hepatocytes, 24 hours; FIG. 16
Procedure: In order to confirm the presence or absence of cytotoxicity in normal hepatocytes, Gd-suc (i.e., a compound according to an embodiment of the present invention) and Primovist and Multihance (i.e., commercially available liver contrast agents) were treated on the AML12 cell line at various concentrations, and cell viability after 24 hours was analyzed by a known CCK method, and the results are shown in FIG. 16.

[3] = tested on: Balb/C mice; test: in vivo MRI contrast effect (abdominal T1 weighted images); conditions: 0.1 mmol/kg, 4.7 T, FIG. 14
Procedure: The liver-specific T1 contrast effect of the compounds (Gd-suc, Gd-glu) according to embodiments of the present invention and Primovist, a commercially available liver contrast agent, was evaluated in small animals (Balb/C mice, male, 5 w, 25 g, 0.1 mmol/kg) and confirmed through abdominal T1 weighted images (Bruker, 4.7 T), and the results are shown in FIGS. 12 to 15.

Compound: CNC[C@H](O)[C@@H](O)[C@H](O)[C@H](O)CO.O=C([O-])CN1CCN(CC(=O)[O-])CCN(CC(=O)O)CCN(CC(=O)[O-])CC1.[Gd+3] [Dotarem, Gd-DOTA]
- r1 [1]: 4.19 ± 0.014 mM^−ls^−1
- r2 [1]: 4.75 ± 0.016 mM^−ls^−1

Compound: CNC[C@H](O)[C@@H](O)[C@H](O)[C@H](O)CO.CNC[C@H](O)[C@@H](O)[C@H](O)[C@H](O)CO.O=C([O-])CN(CCN(CC(=O)[O-])CC(=O)O)CCN(CC(=O)[O-])CC(=O)O.[Gd+3] [Magnevist]
- r1 [1]: 3.57 ± 0.007 mM^−ls^−1
- r2 [1]: 4.95 ± 0.18 mM^−ls^−1

Compound: CNC(=O)CN(CCN(CCN(CC(=O)[O-])CC(=O)NC)CC(=O)[O-])CC(=O)[O-].[Gd+3] [Omniscan]
- r1 [1]: 3.58 ± 0.014 mM^−ls^−1
- r2 [1]: 4.46 ± 0.024 mM^−ls^−1

Compound: CC(O)CN1CCN(CC(=O)[O-])CCN(CC(=O)[O-])CCN(CC(=O)[O-])CC1.[Gd+3] (stereo not shown) [Prohance]
- r1 [1]: 3.58 ± 0.017 mM^−ls^−1
- r2 [1]: 4.58 ± 0.071 mM^−ls^−1

Compound: CCOc1ccc(CC(CN(CCN(CC(=O)[O-])CC(=O)[O-])CC(=O)[O-])N(CC(=O)[O-])CC(=O)[O-])cc1.[Gd+3].[Na+].[Na+] (stereo not shown) [Primovist]
- r1 [1]: 6.51 ± 0.040 mM^−ls^−1
- r2 [1]: 7.31 ± 0.42 mM^−ls^−1
- cytotoxicity [2]: significant cytotoxicity

Compound: CCOc1ccc(CN2CCN(CC(=O)[O-])CCN(C(CCC(=O)[O-])C(=O)[O-])CCN(CC(=O)[O-])CC2)cc1.[Gd+3] (stereo not shown) [Gd-glu]
- r1 [1]: 8.41 ± 0.084 mM^−ls^−1
- r2 [1]: 9.92 ± 0.081 mM^−ls^−1
- contrast enhancing effect in the gall bladder [3]: exhibited a contrast enhancing effect in the gall bladder

Compound: O=C([O-])CN1CCN(CC(=O)[O-])CCN([C@H](CO)[C@H](O)CO)CCN(CC(=O)[O-])CC1.[Gd+3] (racemic) [Gadovist]
- r1 [1]: 4.12 ± 0.028 mM^−ls^−1
- r2 [1]: 4.60 ± 0.025 mM^−ls^−1

Compound: CNC[C@H](O)[C@@H](O)[C@H](O)[C@H](O)CO.CNC[C@H](O)[C@@H](O)[C@H](O)[C@H](O)CO.O=C([O-])CN(CCN(CC(=O)[O-])CC(=O)O)CCN(CC(=O)O)C(COCc1ccccc1)C(=O)[O-].[Gd+3] (stereo not shown) [Multihance]
- r1 [1]: 5.09 ± 0.015 mM^−ls^−1
- r2 [1]: 6.79 ± 0.38 mM^−ls^−1
- cytotoxicity [2]: significant cytotoxicity
